Laboratory results as given in PMC2231820 (The Journal of General Physiology, 2000).
Residue numbers refer to the chain shown, from its start. Where two headings read alike, the source gives them in different places.

Assays:
Assay type in all cases: cell-based
[1] = biological target: T1, bovine rod (Brod) CNG channel, α homomultimer (Bos taurus, UniProt Q00194); settings: for Hill coefficient n of cGMP activation: six patches
T1 sequence (Q00194 1-690): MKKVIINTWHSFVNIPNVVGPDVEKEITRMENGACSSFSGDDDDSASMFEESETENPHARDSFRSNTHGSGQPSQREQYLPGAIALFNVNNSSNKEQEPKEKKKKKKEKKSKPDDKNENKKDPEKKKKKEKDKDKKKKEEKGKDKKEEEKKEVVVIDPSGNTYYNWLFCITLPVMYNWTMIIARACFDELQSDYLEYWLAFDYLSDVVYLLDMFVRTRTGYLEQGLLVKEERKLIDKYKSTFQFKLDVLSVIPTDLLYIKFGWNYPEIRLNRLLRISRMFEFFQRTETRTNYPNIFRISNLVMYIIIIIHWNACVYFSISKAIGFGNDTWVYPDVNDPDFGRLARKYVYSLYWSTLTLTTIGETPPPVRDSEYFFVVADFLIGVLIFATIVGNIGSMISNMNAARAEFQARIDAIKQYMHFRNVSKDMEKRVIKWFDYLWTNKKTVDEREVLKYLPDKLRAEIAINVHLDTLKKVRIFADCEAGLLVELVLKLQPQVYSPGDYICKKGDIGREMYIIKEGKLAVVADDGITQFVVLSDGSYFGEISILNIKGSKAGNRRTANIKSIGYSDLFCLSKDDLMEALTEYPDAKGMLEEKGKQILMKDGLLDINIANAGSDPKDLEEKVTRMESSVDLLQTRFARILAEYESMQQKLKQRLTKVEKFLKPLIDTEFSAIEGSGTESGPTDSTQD

[2] = biological target: T2, rat olfactory (Rolf) CNG channel, α homomultimer (Rattus norvegicus, UniProt Q00195); settings: for Hill coefficient n of cGMP activation: six patches
T2 sequence (Q00195 1-664): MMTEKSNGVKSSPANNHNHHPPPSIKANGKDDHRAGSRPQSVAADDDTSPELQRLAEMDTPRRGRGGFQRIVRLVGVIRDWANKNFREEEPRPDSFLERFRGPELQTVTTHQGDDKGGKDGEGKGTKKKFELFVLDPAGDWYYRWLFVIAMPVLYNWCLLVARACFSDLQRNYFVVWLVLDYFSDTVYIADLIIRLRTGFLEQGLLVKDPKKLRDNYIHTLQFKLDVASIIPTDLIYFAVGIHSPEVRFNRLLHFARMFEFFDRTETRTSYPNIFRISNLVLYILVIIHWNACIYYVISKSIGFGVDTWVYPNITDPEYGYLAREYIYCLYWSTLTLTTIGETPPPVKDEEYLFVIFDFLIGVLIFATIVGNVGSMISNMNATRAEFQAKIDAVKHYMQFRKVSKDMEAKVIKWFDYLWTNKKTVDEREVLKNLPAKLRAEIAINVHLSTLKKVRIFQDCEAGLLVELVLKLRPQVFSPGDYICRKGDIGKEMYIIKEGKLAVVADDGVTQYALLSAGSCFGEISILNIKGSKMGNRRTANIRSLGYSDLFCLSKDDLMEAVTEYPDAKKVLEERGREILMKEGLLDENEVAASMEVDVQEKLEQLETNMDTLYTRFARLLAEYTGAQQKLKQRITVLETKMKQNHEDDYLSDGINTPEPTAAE

[3] = biological target: T3, Molf G204E CNG channel (Mus musculus, UniProt Q62398, G204E/M2V)
T3 sequence (Q62398 1-664 M2V/G204E): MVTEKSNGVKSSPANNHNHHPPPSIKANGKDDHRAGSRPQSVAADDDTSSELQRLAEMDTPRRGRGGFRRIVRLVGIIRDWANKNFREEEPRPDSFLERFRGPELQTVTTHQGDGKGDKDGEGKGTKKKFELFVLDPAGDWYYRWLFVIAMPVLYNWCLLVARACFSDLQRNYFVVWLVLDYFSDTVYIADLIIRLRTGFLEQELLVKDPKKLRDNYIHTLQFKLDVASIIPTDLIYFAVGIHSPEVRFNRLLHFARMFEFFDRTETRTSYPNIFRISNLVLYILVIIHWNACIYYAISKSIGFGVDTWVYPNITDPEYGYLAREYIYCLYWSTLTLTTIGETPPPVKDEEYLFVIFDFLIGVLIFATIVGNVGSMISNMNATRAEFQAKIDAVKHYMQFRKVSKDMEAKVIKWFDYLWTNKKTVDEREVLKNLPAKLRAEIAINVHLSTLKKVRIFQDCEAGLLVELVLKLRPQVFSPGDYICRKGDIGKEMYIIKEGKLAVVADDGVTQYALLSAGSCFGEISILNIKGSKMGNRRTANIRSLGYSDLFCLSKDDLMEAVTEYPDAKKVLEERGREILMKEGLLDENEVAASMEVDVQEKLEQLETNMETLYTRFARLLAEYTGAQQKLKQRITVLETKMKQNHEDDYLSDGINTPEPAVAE

[4] = biological target: T4, Rolf G204W CNG channel (Rattus norvegicus, UniProt Q00195, G204W)
T4 sequence (Q00195 1-664 G204W): T2 sequence (Q00195 1-664) with G204W

[5] = read-out: Percent inhibition by tetracaine

## CCCCNc1ccc(C(=O)OCCN(C)C)cc1 [Tetracaine, tetracaine]
[1]; [5]
  inhibition at 40 µM: 94.1%
[2]
  IC50: 140 µM
[2]; [5]
  inhibition at 40 µM: 10.4%
[3]
  IC50: 10.8 µM
[3]; [5]
  inhibition at 40 µM: 78.3%
[4]
  IC50: 2.2 µM
[4]; [5]
  inhibition at 40 µM: 100%

## Nc1nc2c(ncn2[C@@H]2O[C@@H]3COP(=O)(O)O[C@H]3[C@H]2O)c(=O)[nH]1 [cGMP]
[1]; Brod, 10 μM cGMP, +100 mV
  I/Imax of cGMP-activated current: 0.20
[1]; Brod, +100 mV
  Hill coefficient n of cGMP activation: 2.0
[1]; Brod, −100 mV
  Hill coefficient n of cGMP activation: 2.0
[2]; Rolf, +100 mV
  Hill coefficient n of cGMP activation: 2.8
[2]; Rolf, −100 mV
  Hill coefficient n of cGMP activation: 2.8
[3]; Molf G204E, 1 μM cGMP, +100 mV
  I/Imax of cGMP-activated current: 0.15
[4]; Rolf G204W, averaged six patches, +100 mV
  Hill coefficient n of cGMP activation: 1.7
[4]; Rolf G204W, averaged six patches, −100 mV
  Hill coefficient n of cGMP activation: 1.7
[4]; Rolf G204W, single patch, +100 mV
  Hill coefficient n of cGMP activation: 2.0
[4]; Rolf G204W, single patch, −100 mV
  Hill coefficient n of cGMP activation: 2.0
[4]; read-out: cGMP K1/2 (half-maximal activation), Rolf G204W, +100 mV, averaged data from six patches
  EC50: 14 µM
[4]; read-out: cGMP K1/2, Rolf G204W, single patch, +100 mV
  EC50: 14 µM
[4]; read-out: cGMP K1/2, Rolf G204W, single patch, −100 mV
  EC50: 18 µM

## diacylglycerol [DAG]
[1]; Brod, 1.5 μM DAG, saturating 2 mM cGMP
  decrease of maximal current by DAG: > 80%
[1]; Brod, saturating cGMP
  DAG concentration that fully suppresses cGMP-activated currents: ~3 µM
[2]; Rolf, 1.5 μM DAG, saturating 100 μM cGMP
  decrease of maximal current by DAG: 14%
[2]; Rolf, 12 μM DAG, saturating cGMP
  inhibition of cGMP-activated current by DAG (in words): only partial inhibition
[3]; Molf G204E, 1.5 μM DAG, saturating 100 μM cGMP
  decrease of maximal current by DAG: > 80%
[3]; Molf G204E, saturating 100 μM cGMP
  DAG maximal percent inhibition (INmax): 100%
[3]; Molf G204E, saturating cGMP
  DAG concentration that fully suppresses cGMP-activated currents: ~3 µM
[4]; Rolf G204W, 2 mM cGMP
  DAG maximal percent inhibition (INmax): 100%
  Hill coefficient n of DAG inhibition: 3.2
